The values below come from patent EP0781282B1, “[1,2,4]TRIAZOLO[4,3-a]QUINOXALINONE DERIVATIVES, THEIR PREPARATION AND USE” (NOVO NORDISK A/S, priority 1994, dated 1996).

SMILES strings stand for the structures.

One assay concerns the target AMPA receptors. As to the kind of experiment: 3H-AMPA binding (Test 1). Conditions: displacement of 50% of specific 3H-AMPA binding (5 nM); rat cerebral cortical membrane homogenate, 0°C, 30 min. How it is done:
The displacement activity of the compounds may be shown by determining the IC50 value which represents the concentration (µM) which causes a displacement of 50% of the specific binding of ^3H-AMPA.
^3H-AMPA binding (Test 1)
500 µl of thawed rat cerebral cortical membrane homogenate in Tris-HCI (30 mM), CaCl2 (2.5 mM) and KSCN (100 mM) pH 7.1 were incubated at 0°C for 30 min. with 25 µl ^3H-AMPA (5 nM final concentration) and the test compound and buffer. Nonspecific binding was determined by incubation with L-glutamic acid (600 µM final concentration). The binding reaction was terminated by adding 5 ml of ice-cold buffer followed by filtration through Whatman GF/C glass fibre filters and 2x5 ml wash with ice-cold buffer. Bound radioactivity was measured by scintillation counting. IC50 was determined by Hill analysis of at least four concentrations of test compound.

Assay [1] deals with quisqualic acid stimulated spreading depression in chicken retina. Put plainly: Spreading depression in chicken retina (Test 2). Conditions: 50% maximal inhibition of spreading depression; quisqualate 1 µg/ml, chick retina, 26°C. Here is the method:
The antagonism is measured by determining the IC50 value which represents the concentration which produces a 50% maximal inhibition of quisqualic acid stimulated spreading depression in chicken retina.
Spreading depression (Test 2)
Chicks (3-10 days old) were decapitated, the eyes enucleated and sectioned along the equatorial plane. After removal of the anterior chamber and the vitreous body, the posterior chamber of each eye was placed in a small petri dish containing a physiological saline solution (P.S.S.) of the following composition (mM) NaCI (100), KCI (6.0), CaCl2 (1.0), MgSO4 (1.0), NaHCO3 (30), NaH2PO4 (1.0), glucose (20).
The solution was saturated with 100% O2 and maintained at a temperature of 26°C.
The eyes were initially incubated in normal P.S.S. for 15-30 min. and then transferred to P.S.S. containing quisqualate (1 µg/ml). […] The time taken for an S.D. to start in each eye was measured.
After a further 15 min. of incubation in normal P.S.S. the eyes were transferred to normal P.S.S. containing the test compound and incubated for 15 min. […] The time taken for an S.D. to start in each eye was measured again. The eyes were then placed back in normal P.S.S. and after 15 min. the time taken for S.D. to start was measured again, in order to assess the degree of recovery from any drug effects. […]

On to `CCOP(=O)(O)Cc1nnc2c(=O)[nH]c3cc(C(F)(F)F)c(-n4ccnc4)cc3n12` [Example 1, 1-(Ethoxy-hydroxy-phosphorylmethyl)-8-(1H-imidazol-1-yl)-7-trifluoromethyl[1,2,4]triazolo[4,3-a]quinoxalin-4(5H)-one], for which the figures for the half-maximal inhibitory concentration (IC50) (at AMPA receptors; in assay [1]) were 240 nM and 1310 nM, respectively.
